In US8476298B2 (Exelixis, Inc., priority 2003, dated 2013):
Where two headings read alike, the source gives them in different places.

Key:
[1] = molecular target: T1, Flt-3 (baculovirus expressed human Flt-3 kinase domain R571-S993) (Homo sapiens, UniProt P36888); assay: biochemical; conditions: read-out: flt3 IC50;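 further: Luciferase-coupled chemiluminescent kinase assay, activity read as percent ATP left after a 3 h reaction at room temperature, ATP near KM, 10-point dose-response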
T1 construct: human Flt-3 kinase domain R571-S993; host or cells: baculovirus expression
T1 sequence (P36888 571-993): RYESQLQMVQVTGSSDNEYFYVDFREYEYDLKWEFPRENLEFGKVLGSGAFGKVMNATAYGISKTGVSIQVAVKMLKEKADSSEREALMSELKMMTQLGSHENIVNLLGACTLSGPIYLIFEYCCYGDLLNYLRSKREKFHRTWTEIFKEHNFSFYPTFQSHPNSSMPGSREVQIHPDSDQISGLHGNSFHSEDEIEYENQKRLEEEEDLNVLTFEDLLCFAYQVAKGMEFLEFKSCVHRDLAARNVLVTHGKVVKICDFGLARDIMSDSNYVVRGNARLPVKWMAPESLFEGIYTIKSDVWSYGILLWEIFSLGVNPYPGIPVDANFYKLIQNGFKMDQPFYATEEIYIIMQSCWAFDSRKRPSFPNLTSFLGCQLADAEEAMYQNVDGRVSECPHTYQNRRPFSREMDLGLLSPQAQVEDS

[2] = molecular target: T2, KDR (baculovirus expressed human KDR kinase domain D807-V1356) (Homo sapiens, UniProt P35968); assay: biochemical;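 further: Luciferase-coupled chemiluminescent kinase assay, activity read as percent ATP left after 4 h reaction at ambient temperature, ATP near KM, 10-point dose-response in 384-well plates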
T2 construct: human KDR kinase domain D807-V1356; host or cells: baculovirus expression

[3] = molecular target: T3, Flt-4 (baculovirus expressed human Flt-4 kinase domain D725-R1298) (Homo sapiens, UniProt P35916); assay: flt-4 Alphascreen Tyrosine Kinase assay; format: biochemical;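 further: AlphaScreen chemiluminescence read-out of biotinylated poly(Glu,Tyr) 4:1 phosphorylation via streptavidin donor and PY100 anti-phosphotyrosine acceptor beads, ATP near KM, 1 hr kinase reaction, 10-point dose-response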
T3 construct: human Flt-4 kinase domain D725-R1298; host or cells: baculovirus expression
Method: Kinase activity and compound inhibition are investigated using one or more of the three assay formats described below. The ATP concentrations for each assay are selected to be close to the Michaelis-Menten constant (KM) for each individual kinase. Dose-response experiments are performed at 10 different inhibitor concentrations in a 384-well plate format. […] Typically H is close to unity. c-Met Assay
Biochemical activity for flt-4 was assessed using an Alphascreen Tyrosine Kinase protocol. AlphaScreen™ (Perkin Elmer) technology is a proximity assay employing microparticles. Singlet oxygen derived from a donor bead following laser excitation results in chemiluminescence when in proximity (100 Å) to an acceptor bead due to biomolecular interactions. For the Flt-4 assay, donor beads coated with streptavidin and acceptor beads coated with PY100 anti-phosphotyrosine antibody were used (Perkin Elmer). Biotinylated poly(Glu,Tyr) 4:1 (Perkin Elmer) was used as the substrate. Substrate phosphorylation was measured by addition of donor/acceptor beads by chemiluminescence following donor-acceptor bead complex formation. […] Reaction mixtures were incubated for 1 hr at ambient temperature. […] After 2-16 hr incubation at ambient temperature plates were read using an AlphaQuest reader (Perkin Elmer).

[4] = molecular target: T4, c-Met (baculovirus expressed human c-Met kinase domain P948-S1343) (Homo sapiens, UniProt P08581); assay: c-Met Luciferase-Coupled Chemiluminescent Kinase assay (LCCA); format: biochemical;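 further: kinase activity read as percent ATP left after reaction, by luciferase-luciferin chemiluminescence, with 1 µM ATP and 1 µM poly-EY substrate, 2 h at ambient temperature, 10-point dose-response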
T4 construct: human c-Met kinase domain P948-S1343; host or cells: baculovirus expression

c-Kit kinase = c-Kit kinase (Homo sapiens, UniProt P10721); assay: c-Kit AlphaScreen kinase assay; format: biochemical;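 further: c-Kit kinase phosphorylating biotinylated poly(Glu,Tyr), ATP near its KM, 1 h reaction at ambient temperature, AlphaScreen chemiluminescence with streptavidin donor and anti-phosphotyrosine acceptor beads, 10-point inhibitor titration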
[5] = Table 4, inhibition as IC50 class
[6] = Table 4, inhibition as IC50 class, read-out: flt4 IC50

T3 sequence (P35916 725-1298 isoform P35916-1): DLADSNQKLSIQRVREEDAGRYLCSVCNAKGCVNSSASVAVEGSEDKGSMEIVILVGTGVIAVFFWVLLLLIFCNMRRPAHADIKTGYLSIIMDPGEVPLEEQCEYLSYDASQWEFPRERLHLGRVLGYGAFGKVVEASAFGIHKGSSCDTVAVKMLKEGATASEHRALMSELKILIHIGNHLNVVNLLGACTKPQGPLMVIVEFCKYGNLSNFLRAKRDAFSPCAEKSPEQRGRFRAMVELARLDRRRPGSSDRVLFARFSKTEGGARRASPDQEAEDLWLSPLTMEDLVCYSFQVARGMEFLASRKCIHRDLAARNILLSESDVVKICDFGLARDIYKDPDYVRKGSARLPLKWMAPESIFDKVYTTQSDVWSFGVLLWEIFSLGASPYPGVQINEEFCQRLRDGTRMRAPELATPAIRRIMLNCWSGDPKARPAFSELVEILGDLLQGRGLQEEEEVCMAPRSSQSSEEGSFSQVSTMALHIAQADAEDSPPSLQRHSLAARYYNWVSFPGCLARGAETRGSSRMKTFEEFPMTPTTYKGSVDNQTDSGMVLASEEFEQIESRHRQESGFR
T2 sequence (P35968 807-1356): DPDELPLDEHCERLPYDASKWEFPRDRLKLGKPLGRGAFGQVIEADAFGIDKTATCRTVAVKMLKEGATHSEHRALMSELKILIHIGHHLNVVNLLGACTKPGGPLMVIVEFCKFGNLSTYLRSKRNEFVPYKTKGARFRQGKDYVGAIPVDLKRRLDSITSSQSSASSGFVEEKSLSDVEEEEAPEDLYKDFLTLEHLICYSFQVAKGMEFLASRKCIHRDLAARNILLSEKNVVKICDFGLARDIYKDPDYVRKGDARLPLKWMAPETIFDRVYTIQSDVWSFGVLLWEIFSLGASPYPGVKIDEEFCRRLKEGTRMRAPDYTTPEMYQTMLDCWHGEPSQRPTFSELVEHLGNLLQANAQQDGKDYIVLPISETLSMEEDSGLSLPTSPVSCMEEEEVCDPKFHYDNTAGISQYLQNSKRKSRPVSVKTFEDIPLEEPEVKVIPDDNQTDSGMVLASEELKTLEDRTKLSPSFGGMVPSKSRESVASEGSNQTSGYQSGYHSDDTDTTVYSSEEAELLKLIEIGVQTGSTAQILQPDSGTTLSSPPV
T4 sequence (P08581 1011-1343 limits assumed): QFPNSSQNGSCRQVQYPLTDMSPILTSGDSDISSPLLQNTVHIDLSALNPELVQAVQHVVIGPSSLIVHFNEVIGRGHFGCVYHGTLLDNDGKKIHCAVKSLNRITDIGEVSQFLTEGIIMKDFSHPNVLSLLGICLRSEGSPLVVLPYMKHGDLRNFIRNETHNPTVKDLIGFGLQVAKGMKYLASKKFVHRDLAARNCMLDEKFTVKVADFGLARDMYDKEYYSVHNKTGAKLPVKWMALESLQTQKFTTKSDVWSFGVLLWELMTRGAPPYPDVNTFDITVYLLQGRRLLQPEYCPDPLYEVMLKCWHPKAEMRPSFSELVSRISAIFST
c-Kit kinase, sequence (P10721 26-976): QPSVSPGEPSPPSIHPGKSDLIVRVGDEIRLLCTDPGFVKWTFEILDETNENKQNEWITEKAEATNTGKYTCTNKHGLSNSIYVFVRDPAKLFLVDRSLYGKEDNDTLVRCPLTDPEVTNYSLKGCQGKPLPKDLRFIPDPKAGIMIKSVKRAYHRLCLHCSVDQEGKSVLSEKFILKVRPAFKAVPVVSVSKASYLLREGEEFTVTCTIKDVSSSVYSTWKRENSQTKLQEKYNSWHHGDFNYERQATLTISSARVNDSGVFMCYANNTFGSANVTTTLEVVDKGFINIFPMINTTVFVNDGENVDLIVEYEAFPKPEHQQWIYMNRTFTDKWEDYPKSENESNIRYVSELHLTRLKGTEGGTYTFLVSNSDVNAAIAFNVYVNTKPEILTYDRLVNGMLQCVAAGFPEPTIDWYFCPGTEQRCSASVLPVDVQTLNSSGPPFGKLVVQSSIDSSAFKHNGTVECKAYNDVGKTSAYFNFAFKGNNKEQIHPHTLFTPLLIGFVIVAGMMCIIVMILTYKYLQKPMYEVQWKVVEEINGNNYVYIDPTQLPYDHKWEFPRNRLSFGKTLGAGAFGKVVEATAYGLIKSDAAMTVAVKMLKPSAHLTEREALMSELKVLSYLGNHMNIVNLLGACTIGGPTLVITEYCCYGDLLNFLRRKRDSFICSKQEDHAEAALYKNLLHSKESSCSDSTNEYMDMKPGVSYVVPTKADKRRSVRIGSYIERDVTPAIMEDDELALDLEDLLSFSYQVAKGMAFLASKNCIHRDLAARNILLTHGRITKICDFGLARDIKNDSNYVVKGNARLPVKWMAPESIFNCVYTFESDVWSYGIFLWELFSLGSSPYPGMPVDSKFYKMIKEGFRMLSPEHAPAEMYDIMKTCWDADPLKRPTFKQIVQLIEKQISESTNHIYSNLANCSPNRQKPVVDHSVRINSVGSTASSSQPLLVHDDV

Row | SMILES | IC50 [1, 5] | IC50 [2, 5] | IC50 [4, 5] | IC50 (c-Kit kinase; [5]) | IC50 [2] | IC50 ([3]; read-out: flt4 IC50) | IC50 [4] | IC50 (c-Kit kinase) | further results
1 | COc1cc2c(Oc3ccc(NC(=O)C(=O)NCc4ccc(F)c(F)c4)cc3F)ccnc2cc1OCC1CCNCC1 [Example 256, N-[(3,4-difluorophenyl)methyl]-N′-[3-fluoro-4-({6-(methyloxy)-7-[(piperidin-4-ylmethyl)oxy]quinolin-4-yl}oxy)phenyl]ethanediamide] | 50 to 500 nM | < 50 nM | < 50 nM | < 50 nM |  |  |  |  | IC50 [3, 6]: < 50 nM
2 | COc1cc2nccc(Oc3ccc(NC(=O)CC(=O)Nc4ccc(F)cc4)cc3)c2cc1OC [Example 288, N-(4-{[6,7-bis(methyloxy)quinolin-4-yl]oxy}phenyl)-N′-(4-fluorophenyl)propanediamide] |  |  |  |  | < 50 nM | < 50 nM | < 50 nM | < 50 nM | IC50 [1]: < 50 nM
3 | COc1cc2ncnc(Oc3ccc(NC(=O)C4(C(=O)Nc5ccc(F)cc5)CC4)cc3F)c2cc1OCCCN1CCOCC1 [Example 321, N-[3-fluoro-4-({7-(methyloxy)-6-[(3-morpholin-4-ylpropyl)oxy]quinazolin-4-yl}oxy)phenyl]-N′-(4-fluorophenyl)cyclopropane-1,1-dicarboxamide] |  |  |  |  | < 50 nM | < 50 nM | < 50 nM | 50 to 500 nM | IC50 [1]: < 50 nM
4 | COc1cc2nccc(Oc3ccc(N4CC(Cc5ccccc5)N(S(=O)(=O)c5ccc(C)cc5)C4=O)cc3)c2cc1OC (centres unmarked) [Example 112, 1-(4-{[6,7-bis(methyloxy)quinolin-4-yl]oxy}phenyl)-3-[(4-methylphenyl)sulfonyl]-4-(phenylmethyl)imidazolidin-2-one] |  |  |  |  | 500 to 5000 nM | 500 to 5000 nM | 50 to 500 nM | 50 to 500 nM | IC50 [1]: 500 to 5000 nM
5 | COc1cc2c(Oc3ccc(NC(=O)C(=O)NCc4c(F)cccc4F)cc3F)ccnc2cc1OCC1CCNCC1 [Example 257, N-[(2,6-difluorophenyl)methyl]-N′-[3-fluoro-4-({6-(methyloxy)-7-[(piperidin-4-ylmethyl)oxy]quinolin-4-yl}oxy)phenyl]ethanediamide] | 50 to 500 nM | < 50 nM | < 50 nM | < 50 nM |  |  |  |  | IC50 [3, 6]: < 50 nM
6 | COc1cc2c(Oc3ccc(NC(=O)C(=O)NCCc4ccc(Cl)c(Cl)c4)cc3F)ccnc2cc1OCC1CCNCC1 [Example 223, N-[2-(3,4-dichlorophenyl)ethyl]-N′-[3-fluoro-4-({6-(methyloxy)-7-[(piperidin-4-ylmethyl)oxy]quinolin-4-yl}oxy)phenyl]ethanediamide] | < 50 nM | < 50 nM | < 50 nM | < 50 nM |  |  |  |  | 
7 | COc1cc2nccc(Oc3ccc(NC(=O)C(=O)NCCOc4ccccc4)cc3F)c2cc1OC [Entry 73] |  |  |  |  | 50 to 500 nM | 500 to 5000 nM | 50 to 500 nM | 50 to 500 nM | 
8 | COc1cc2c(Oc3ccc(NC(=O)C(=O)NCc4cnccn4)cc3F)ccnc2cc1OCC1CCNCC1 [Example 273, N-[3-fluoro-4-({6-(methyloxy)-7-[(piperidin-4-ylmethyl)oxy]quinolin-4-yl}oxy)phenyl]-N′-(pyrazin-2-ylmethyl)ethanediamide] | 50 to 500 nM | 500 to 5000 nM | 50 to 500 nM | 500 to 5000 nM |  |  |  |  | 
9 | COc1cc2c(Oc3ccc(NC(=O)C(=O)NC4CCc5ccccc54)cc3F)ccnc2cc1OCC1CCNCC1 (centres unmarked) [Example 177, N-{3-Fluoro-4-[6-methoxy-7-(piperidin-4-ylmethoxy)-quinolin-4-yloxy]-phenyl}-N′-indan-1-yl-oxalamide] |  |  |  | < 50 nM |  |  |  |  | 
10 | COc1cc2nccc(Oc3ccc(NC(=O)C(=O)N[C@@H]4CCc5ccccc5C4)cc3F)c2cc1OC [Entry 71] |  |  |  |  | > 5000 nM | 500 to 5000 nM | 50 to 500 nM | 50 to 500 nM | 
11 | COc1cc2nccc(Oc3ccc(NC(=O)C(=O)NCc4ccccc4)cc3F)c2cc1OC [Entry 12] |  |  |  |  |  |  |  | 50 to 500 nM | 
12 | COc1cc2nccc(Oc3ncc(NC(=O)C4(C(=O)Nc5ccccc5)CC4)cc3Cl)c2cc1OC [Example 305, N-(6-{[6,7-bis(methyloxy)quinolin-4-yl]oxy}-5-chloropyridin-3-yl)-N′-phenylcyclopropane-1,1-dicarboxamide] |  |  |  |  | 50 to 500 nM |  | < 50 nM | 50 to 500 nM | IC50 [1]: < 50 nM
13 | COc1cc2c(Oc3ccc(NC(=S)NC(=O)Cc4ccccc4)cc3F)ncnc2cc1OCC1C[C@H]2CNC[C@H]2C1 (some centres unmarked) [Entry 1] |  |  |  |  | < 50 nM | < 50 nM |  |  | 
14 | COc1cc2nccc(Oc3ccc(NC(=O)C(=O)NCCC4CCCN4C)cc3F)c2cc1OC (centres unmarked) [Entry 72] |  |  |  |  |  |  | 500 to 5000 nM | 500 to 5000 nM | IC50 [1]: 500 to 5000 nM
15 | COc1ccc(CNC(=O)C(=O)Nc2ccc(Oc3ccnc4cc(OCC5CCN(C)CC5)c(OC)cc34)c(F)c2)cc1 [Example 247, N-{3-fluoro-4-[(6-(methyloxy)-7-{[(1-methylpiperidin-4-yl)methyl]oxy}quinolin-4-yl)oxy]phenyl}-N′-{[4-(methyloxy)phenyl]methyl}ethanediamide] | 50 to 500 nM | 50 to 500 nM | < 50 nM | < 50 nM |  |  |  |  | 
16 | COc1cc2c(Oc3ccc(NC(=O)C(=O)NCCc4cccc(Cl)c4)cc3F)ccnc2cc1OCC1CCNCC1 [Example 149, N-[2-(3-Chloro-phenyl)-ethyl]-N′-{3-fluoro-4-[6-methoxy-7-{piperidin-4-ylmethoxy)-quinolin-4-yloxy]-phenyl}-oxalamide] |  |  |  |  |  |  |  | < 50 nM | 
17 | COc1cc2c(Oc3ccc(NC(=O)C(=O)N[C@@H](C)c4ccccc4)cc3F)ccnc2cc1OCC1CCNCC1 [Example 184, N-{3-Fluoro-4-[6-methoxy-7-(piperidin-4-ylmethoxy)-quinolin-4-yloxy]-phenyl}-N′-(1S-phenyl-ethyl)-oxalamide] |  |  |  | < 50 nM |  |  |  |  | 
18 | COc1cc2c(Oc3ccc(NC(=O)C(=O)NCc4cc(C(F)(F)F)cc(C(F)(F)F)c4)cc3F)ccnc2cc1OCC1CCNCC1 [Example 272, N-{[3,5-bis(trifluoromethyl)phenyl]methyl}-N′-[3-fluoro-4-({6-(methyloxy)-7-[(piperidin-4-ylmethyl)oxy]quinolin-4-yl}oxy)phenyl]ethanediamide] | 50 to 500 nM | < 50 nM | < 50 nM | 500 to 5000 nM |  |  |  |  | 
19 | COc1cc2nccc(Oc3ccc(NC(=O)C4(C(=O)Nc5ccc(F)cc5)CC4)cc3)c2cc1OC [Example 289, N-(4-{[6,7-bis(methyloxy)quinolin-4-yl]oxy}phenyl)-N′-(4-fluorophenyl)cyclopropane-1,1-dicarboxamide] |  |  |  |  |  |  |  |  | IC50 [3]: 5.58 nM
20 | COc1cc2c(Oc3ccc(NC(=S)NC(=O)Cc4ccccc4)cc3F)ncnc2cc1OCC1C[C@@H]2CN(C)C[C@@H]2C1 (some centres unmarked) [Entry 2] |  |  |  |  | < 50 nM | < 50 nM | < 50 nM | < 50 nM | 
21 | COc1cc2c(Oc3ccc(NC(=O)C(=O)NCC(O)c4ccccc4)cc3F)ccnc2cc1OCC1CCNCC1 (centres unmarked) [Example 251, N-[3-fluoro-4-({6-(methyloxy)-7-[(piperidin-4-ylmethyl)oxy]quinolin-4-yl}oxy)phenyl]-N′-(2-hydroxy-2-phenylethyl)ethanediamide] | 50 to 500 nM | 50 to 500 nM | 50 to 500 nM | 50 to 500 nM |  |  |  |  | 
22 | COc1cc2nccc(Oc3ccc(NC(=O)C(=O)NCC(c4ccccc4)N(C)C)cc3F)c2cc1OC (centres unmarked) [Example 235, N-(4-{[6,7-bis(methyloxy)quinolin-4-yl]oxy}-3-fluorophenyl)-N′-[2-(dimethylamino)-2-phenylethyl]ethanediamide] | < 50 nM | 50 to 500 nM | 50 to 500 nM | 50 to 500 nM |  |  |  |  | 
23 | COc1cc2c(Oc3ccc(NC(=O)C4(C(=O)Nc5ccc(F)cc5)CC4)cc3)ccnc2cc1OCCCN1CCOCC1 [Example 335, N-(4-fluorophenyl)-N′-[4-({6-(methyloxy)-7-[(3-morpholin-4-ylpropyl)oxy]quinolin-4-yl}oxy)phenyl]cyclopropane-1,1-dicarboxamide] |  |  |  |  | < 50 nM | < 50 nM |  | < 50 nM | IC50 [1]: < 50 nM
24 | COc1cc2nccc(Oc3ccc(NC(=O)C4(C(=O)Nc5ccc(F)cc5)CC4)cc3F)c2cc1OC [Example 319, N-(4-{[6,7-bis(methyloxy)quinolin-4-yl]oxy}-3-fluorophenyl)-N′-(4-fluorophenyl)cyclopropane-1,1-dicarboxamide] |  |  |  |  |  | < 50 nM |  | < 50 nM | IC50 [1]: < 50 nM
25 | CC[C@H](NC(=O)C(=O)Nc1ccc(Oc2ccnc3cc(OCC4CCNCC4)c(OC)cc23)c(F)c1)c1ccccc1 [Example 255, N-[3-fluoro-4-({6-(methyloxy)-7-[(piperidin-4-ylmethyl)oxy]quinolin-4-yl}oxy)phenyl]-N′-[(1S)-1-phenylpropyl]ethanediamide] | 50 to 500 nM | 50 to 500 nM | < 50 nM | 500 to 5000 nM |  |  |  |  | 
